From patent publication US5686449A, “1,5-benzodiazepines useful as gastrinor CCK-antagonists” (priority 1994, dated 1997)
Read-outs that look alike come from different tables or passages of the source.

What was measured:
CCK-B receptor = biological target: T1, CCK-B receptor (Cavia porcellus, UniProt H0VZC5); assay: CCK receptor binding, CCK-B (guinea pig cortex assay)
T1 construct: CCK-B receptor (guinea pig cortex assay); from tissue; host or cells: guinea pig cortex
T1 sequence (H0VZC5 1-426): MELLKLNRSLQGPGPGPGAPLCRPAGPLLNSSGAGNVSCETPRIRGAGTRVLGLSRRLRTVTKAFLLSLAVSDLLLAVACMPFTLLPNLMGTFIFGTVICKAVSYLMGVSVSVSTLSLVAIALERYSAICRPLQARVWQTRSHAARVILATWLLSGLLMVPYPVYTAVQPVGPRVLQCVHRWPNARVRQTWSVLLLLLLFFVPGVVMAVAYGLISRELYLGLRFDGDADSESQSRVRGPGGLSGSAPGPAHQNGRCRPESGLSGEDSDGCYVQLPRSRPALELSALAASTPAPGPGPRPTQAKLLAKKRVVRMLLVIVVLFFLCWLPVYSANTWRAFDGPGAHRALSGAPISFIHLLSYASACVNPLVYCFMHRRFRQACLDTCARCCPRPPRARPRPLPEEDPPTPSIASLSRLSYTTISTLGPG
Protocol: (§1) Exp & Ther. 261, 1056-1063, 1992.
(§2) The binding affinity of the compounds of the invention for the CCK-A receptor (Pancreas Assay) and CCK-B receptor (guinea pig cortex assay) was determined using the procedure of G Dal Forno et al J. Pharmacol. Exp & Ther. 261-1056-1063.

CCK-A receptor = assay: CCK receptor binding, CCK-A (Pancreas Assay)
Protocol: as §1, §2

[1] = CCK-B receptor, guinea pig cortex assay, read-out: pKi CCK-B (converted)

| Ki (CCK-B receptor; [1]) [nM] | pKi CCK-A (CCK-A receptor) | SMILES | Ki (CCK-B receptor) [nM] |
| --- | --- | --- | --- |
| 0.251 | – | O=C(Nc1ccccc1)NC1C(=O)N(CCO)c2ccccc2N(CC23CC4CC(CC(C4)C2)C3)C1=O (single isomer, unassigned; (-)) [Example 11, (-)-N-[1-(Adamantylmethyl)-2,4-dioxo-5-(2-hydroxyethyl)-2,3,4,5-tetrahydro-1H-1,5-benzodiazepin-3-yl]-N'-phenylurea] | – |
| 1.41 | – | O=C(Nc1ccccc1)NC1C(=O)N(CCO)c2ccccc2N(CC23CC4CC(CC(C4)C2)C3)C1=O (centres unmarked) [Example 9, N-[1-(Adamantylmethyl)-2,4-dioxo-5-(2-hydroxyethyl)-2,3,4,5-tetrahydro-1H-1,5-benzodiazepin-3-yl]-N'-phenylurea] | – |
| 0.398 | 6.8 | Cc1cccc(NC(=O)NC2C(=O)N(CCO)c3ccccc3N(CC34CC5CC(CC(C5)C3)C4)C2=O)c1 (centres unmarked) [Example 10] | – |

The remaining lines, values behind:

| SMILES | Ki (CCK-B receptor; [1]) [nM] | pKi CCK-A (CCK-A receptor) | Ki (CCK-B receptor) [nM] |
| --- | --- | --- | --- |
| CN1C(=O)C(NC(=O)Nc2ccccc2)C(=O)N(CC23CC4CC(CC(C4)C2)C3)c2ccccc21 (single isomer, unassigned; (-)) [Example 8, (-)-N-[1-(Adamantylmethyl)-2,4-dioxo-5-methyl-2,3,4,5-tetrahydro-1H-1,5-benzodiazepin-3-yl]-N'-phenylurea] | 1 | – | – |
| CC(C)CCN1C(=O)C(NC(=O)Nc2ccccc2)C(=O)N(CC23CC4CC(CC(C4)C2)C3)c2ccccc21 (centres unmarked) [Example 1, N-[1-(1-Adamantylmethyl)-2,4-dioxo-5-(3-methylbut-1-yl)-2,3,4,5-tetrahydro-1H-1,5-benzodiazepin-3-yl]-N'-phenylurea] | 1.38 | 6.54 | – |
| CC(C)CCN1C(=O)C(NC(=O)Nc2cccc(N(C)C)c2)C(=O)N(CC23CC4CC(CC(C4)C2)C3)c2ccccc21 (centres unmarked) [Example 2, N-[1-(1-Adamantylmethyl)-2,4-dioxo-5-(3-methylbut-1-yl)-2,3,4,5-tetrahydro-1H-1,5-benzodiazepin-3-yl]-N'-[3-(N,N-dimethylamino)phenyl]urea] | – | 6.02 | 5.62 |
| O=C(Nc1ccccc1)NC1C(=O)N(CC23CC4CC(CC(C4)C2)C3)c2ccccc2N(C2CCCCC2)C1=O (centres unmarked) [Example 3] | – | 6.25 | 2.4 |
| CC(C)CCN1C(=O)C(NC(=O)Oc2cccc(N(C)C)c2)C(=O)N(CC23CC4CC(CC(C4)C2)C3)c2ccccc21 (centres unmarked) [Example 4, 1-(1-Adamantylmethyl)-3-[3-(N,N-dimethylamino)phenyloxycarbonyl]amino-2,4-dioxo-5-(3-methylbut-1-yl)-2,3,4,5-tetrahydro-1H-1,5-benzodiazepine] | – | 5.80 | 7.59 |
| CCCCN1C(=O)C(NC(=O)Nc2ccc(OC)cc2)C(=O)N(CCC(C)C)c2ccccc21 (centres unmarked) [Example 12] | 2.04 | 6.16 | – |
| O=C(Nc1ccccc1)NC1C(=O)N(CCCO)c2ccccc2N(CC23CC4CC(CC(C4)C2)C3)C1=O (centres unmarked) [Example 14, N-[1-(Adamantane-1-methyl)-2,4-dioxo-5-(3-hydroxypropyl)-2,3,4,5-tetrahydro-1H-1,5-benzodiazepin-3-yl]-N'-phenylurea] | 0.389 | 6.09 | – |
